We go through 1 sequence from patent US12297240B2, “Peptide” (Kyoto University, priority 2015, dated 2025).

Assay [1] relates to ddY mice. The experiment in a line: Tail suspension test. It counts as in vivo. The method, then:
(§1) The test was carried out (0 minutes) 30 minutes after administration of a test substance, and the immobility time during the period from 0 to 6 minutes was measured (FIG. 2).
When an antidepressant drug, such as imipramine, is administered, the immobility time is reduced. Thus, when a reduction in the immobility time is observed, it can be evaluated that the test substance has an antidepressant-like effect. Immobility is considered a despair state; therefore, a reduction in the immobility time also serves as an index for improvement of a despair state, i.e., enhancement of motivation.

For assay [2], the system named is ddY mice. The experiment in a line: Forced swim test. The class given is in vivo. The note with it: 1 mg/kg or more orally; doses tested 0.3, 1 mg/kg (Example 5, FIG. 8). The protocol: The test was carried out (0 minutes) 30 minutes after administration of a test substance, and the immobility time during the period from 0 to 8 minutes was measured (FIG. 2).
As in the tail suspension test, when an antidepressant drug, such as imipramine, is administered, the immobility time is reduced. Thus, when a reduction in the immobility time is observed, it can be evaluated that the test substance has an antidepressant-like effect. Immobility is considered a despair state; therefore, a reduction in the immobility time also serves as an index for improvement of a despair state, i.e., enhancement of motivation.

Assay [3] concerns ddY mice. The experiment in a line: Elevated plus-maze test (EPM). The class given is in vivo. An excerpt: The elevated plus-maze includes two open arms (25×5 cm) and two closed arms (25×5×15 cm), which are joined to a central platform 50 cm high above the floor (see FIG. 3A). Because the closed arms are surrounded by walls, a mouse can safely walk in the closed arms in spite of the elevated position. On the other hand, because the open arms are not surrounded by walls, a mouse walking along the open arms feels anxious that it may fall from the elevated position. Thus, the more time the mouse spends in the open arms, or the greater the number of entries into the open arms, the less anxious the mouse feels. Thus, the anxiolytic activity is determined based on these indices.
Each mouse was placed on a portion of the central platform facing one of the open arms 30 minutes after the administration, and the test was started. During the 5-minute test time, the cumulative time spent in the open arms (time in open arms), the number of visits to the open arms (visit to open arms), and the total number of visits to any of the arms (total visits) were recorded. The percentage of time spent in the open arms and the percentage of the number of visits to the open arms were calculated as indices of anxiety.

In assay [4] the test system is ddY mice. In words: Open field test. The class given is in vivo. The method, then:
Similar to the case of the elevated plus-maze test, the higher the percentage of exploratory behaviors of a mouse in the center portion of a circle, the less anxious the mouse feels. Thus, the anxiolytic activity is determined based on this index.
Each mouse was placed in an open field 30 minutes after the administration, and the test was started. The percentage of exploratory behaviors in the center portion of the circle (the time spent in the center circle (open field) (Time in 12 cm circle) and the percentage of the number of visits to the center circle (Visits in 12 cm circle)) during the 5-minute test time were evaluated.

In assay [5] the test system is serotonin 5-HT1A, dopamine D1, and GABAA receptors. In words: Tail suspension test in combination with receptor antagonists (mechanism of action). It counts as in vivo, mice. The note with it: 0.3 mg/kg p.o. with WAY100135 10 mg/kg, SCH23390 30 μg/kg or bicuculline 30 mg/kg (Example 8, FIG. 11). The protocol:
as §1
The tail suspension test was performed using mice to which 30 mg/kg of the thermolysin digest of β-CG was orally administered (p.o.) in combination with each of the antagonists of various receptors. Three kinds of antagonists, i.e., WAY100135, which is an antagonist of the serotonin 5-HT1A receptor (dose: 10 mg/kg), SCH23390, which is an antagonist of the dopamine D1 receptor (dose: 30 μg/kg), and bicuculline, which is an antagonist of the GABA-A receptor (dose: 30 mg/kg), were used.
The tail suspension test was performed using mice to which 0.3 mg/kg of the peptide LSSTQAQQSY (SEQ ID NO: 1) was orally administered (p.o.) in combination with each of the antagonists of various receptors. Three kinds of antagonists, i.e., WAY100135, which is an antagonist of the serotonin 5-HT1A receptor (dose: 10 mg/kg), SCH23390, which is an antagonist of the dopamine D1 receptor (dose: 30 μg/kg), and bicuculline, which is an antagonist of the GABA-A receptor (dose: 30 mg/kg), were used.

For the sequence “LSSTQAQQSY (Designed peptide) [10-residue peptide from thermolysin digest of soybean β-conglycinin; synthesized by a standard method]”, the immobility time result in assay [1] (0.3 mg/kg or more orally, doses tested 0.1, 0.3, 1, 3 mg/kg (Example 4, FIG. 7)) was “significantly reduced”; in assay [1] (0.3 mg/kg orally, C-terminal variants (Example 12, FIG. 16)), “strongest immobility time reducing effect”; in assay [1] (0.3 mg/kg orally, structure-activity relationships (Example 6, FIG. 9)), “strongest immobility time reducing effect”; in assay [2], “significantly reduced”. Besides, the “percentage of time spent in the open arms” value in assay [3] (1 mg/kg orally, doses tested 0.1, 0.3, 1 mg/kg (Example 10, FIG. 14)) is “significantly increased”. In addition, in assay [3] (0.1, 0.3 or 1 mg/kg (Example 10, FIG. 14)), the “total number of entries (amount of activities)” value is given as “no significant difference”. Moreover, in assay [4] (1 mg/kg orally (Example 11, FIG. 15)), the “number of visits to the center circle (open field)” value is “significantly increased”. For the same sequence, the “time spent in the center circle (open field)” value in assay [4] (1 mg/kg orally, doses tested 0.1, 0.3, 1 mg/kg (Example 11, FIG. 15)) is given as “significantly increased”. The amount of activities entry in assay [4] (0.1, 0.3 or 1 mg/kg (Example 11, FIG. 15)) was “no significant difference”. In addition, the “reduction in the immobility time in combination with antagonists” value in assay [5] is “significantly suppressed”.
